Laboratory results taken from patent publication US5410049A, “Benzodiazepine derivatives, compositions containing them and their use in therapy” (Merck Sharpe & Dohme Ltd., priority 1991, dated 1995).
Where two headings read alike, the source gives them in different places.

How the values were obtained:
CCK receptor (brain) = target: T1, CCK receptor (brain) (Cavia porcellus, UniProt H0VZC5); assay: CCK Receptor Binding (Brain), inhibition of 125I-CCK-8 binding; set-up: species or system guinea pig (male Hartley); conditions: guinea pig cortex membranes, 50 pM 125I-CCK-8, pH 6.5, 25° C., 2 hours
T1 construct: the cortex was removed and homogenized in 25 mL ice-cold 0.32M sucrose; from tissue; host or cells: cortex of male Hartley guinea pigs (P2 membrane pellet)
T1 sequence (H0VZC5 1-426): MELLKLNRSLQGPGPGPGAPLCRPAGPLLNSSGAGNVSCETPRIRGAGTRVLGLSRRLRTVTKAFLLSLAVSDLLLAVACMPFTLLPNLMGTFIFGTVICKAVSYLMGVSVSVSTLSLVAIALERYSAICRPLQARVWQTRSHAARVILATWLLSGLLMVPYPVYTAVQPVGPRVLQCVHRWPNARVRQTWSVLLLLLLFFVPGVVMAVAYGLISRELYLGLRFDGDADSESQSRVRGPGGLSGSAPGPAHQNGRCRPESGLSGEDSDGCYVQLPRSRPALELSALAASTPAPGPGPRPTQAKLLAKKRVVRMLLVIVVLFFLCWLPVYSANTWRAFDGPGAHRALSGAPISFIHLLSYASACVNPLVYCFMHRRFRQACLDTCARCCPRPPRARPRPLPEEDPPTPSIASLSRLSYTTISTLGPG
Method: CCK-8 sulphated was radiolabelled and the binding was performed according to the description for the pancreas method with minor modifications.
Male Hartley guinea pigs (300-500 g) were sacrificed by decapitation and the cortex was removed and homogenized in 25 mL ice-cold 0.32M sucrose. The homogenates were centrifuged at 1000 g for 10 minutes and the resulting supernatant was recentrifuged at 20,000 g for 20 minutes. The P2 pellet was resuspended in binding assay buffer (20mM HEPES, 5 mM MgCl2, 0.25 mg/ml bacitracin, 1 mM EGTA pH 6.5 at 25° C.), using a Teflon (trademark) homogenizer (5 strokes at 500 rpm) to give a final concentration of 10 mg original wet weight/1.2 ml buffer. For the binding assay, 50 μl of buffer (for total binding) or unlabelled CCK-8 sulphated to give a final concentration of 1 μM (for nonspecific binding) or the compounds of Formula I (for determination of inhibition of ^125 I-CCK-8 binding) and 50 μl of 500 pM ^125 I-CCK-8 (i.e. final concentration of 50 pM) were added to 400 μl of the membrane suspensions in microfuge tubes. All assays were run in duplicate. The reaction mixtures were incubated at 25° C. for 2 hours and then the reaction was terminated by rapid filtration (Brandell 24 well cell harvester) on Whatman GF/C filters with 3×5 ml washes of cold 100 mM NaCl. The radioactivity on the filters was counted with a LKB gamma counter.
Drug displacement studies were performed with at least 10 concentrations of compounds of Formula I and the IC50 values were determined by regression analysis IC50 refers to the concentration of the compound required to inhibit 50% of specific binding of ^125 I-CCK-8.

CCK receptor (pancreas) = target: T2, CCK receptor (pancreas) (Rattus norvegicus, UniProt P30551); assay: CCK Receptor Binding (Pancreas), inhibition of 125I-CCK-8 binding; set-up: species or system rat (male Sprague-Dawley)
T2 construct: The whole pancreas was dissected free of fat tissue and was homogenized; from tissue; host or cells: pancreas of male Sprague-Dawley rats (membrane homogenate)
T2 sequence (P30551 1-444): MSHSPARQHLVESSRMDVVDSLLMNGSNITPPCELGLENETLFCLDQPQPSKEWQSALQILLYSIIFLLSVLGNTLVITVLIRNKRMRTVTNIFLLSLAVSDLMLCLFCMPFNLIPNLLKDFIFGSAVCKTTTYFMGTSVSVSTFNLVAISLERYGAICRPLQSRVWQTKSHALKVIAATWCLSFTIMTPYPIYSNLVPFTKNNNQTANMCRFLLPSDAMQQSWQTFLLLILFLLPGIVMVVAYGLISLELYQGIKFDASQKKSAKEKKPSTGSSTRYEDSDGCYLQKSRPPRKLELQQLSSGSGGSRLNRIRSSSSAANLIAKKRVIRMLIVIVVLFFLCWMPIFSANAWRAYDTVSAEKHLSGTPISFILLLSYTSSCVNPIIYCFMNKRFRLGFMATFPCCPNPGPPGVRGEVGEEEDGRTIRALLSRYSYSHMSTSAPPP
Method: Male Sprague-Dawley rats (150-200 g) were sacrificed by decapitation. The whole pancreas was dissected free of fat tissue and was homogenized in 25 volumes of ice-cold 10 mMN-2-hydroxyethyl-piperazine-N'-2-ethane sulphonic acid (HEPES) buffer with 0.1% soya bean trypsin inhibitor (pH 7.4 at 25° C.) with a Kinematica Polytron. The homogenates were centrifuged at 47,800 g for 10 min. Pellets were resuspended in 10 volumes of binding assay buffer (20mM (HEPES)), 1 mM ethylene glycol-bis-(β-aminoethylether-N,N'-tetraacetic acid) (EGTA), 5mM MgCl2, 150 mM NaCl, bacitracin 0.25 mg/ml, soya bean trypsin inhibitor 0.1 mg/ml, and bovine serum albumin 2 mg/ml pH 6.5 at 25° C.) using a Teflon (trademark) homogenizer, 15 strokes at 500 rpm. The homogenate was further diluted in binding assay buffer to give a final concentration of 0.5 mg original wet weight/1 ml buffer. […] All assays were run in duplicate. The reaction mixtures were incubated at 25° C. for 2 hours and the reaction terminated by rapid filtration (Brandell 24 well cell harvester) over Whatman GF/C filters, washing 3×4 mls with ice-cold 100 Mm NaCl. The radioactivity on the filters was counted with a LKB gamma counter.

[1] = rat pancreas membranes, 50 pM 125I-CCK-8, pH 6.5, 25° C., 2 hours, read-out: CCK RECEPTOR BINDING RESULTS IC50, 125I-CCK Pancreas

IC50 (CCK receptor (brain))	IC50 (CCK receptor (pancreas); [1])	SMILES	IC50 (CCK receptor (pancreas))
3.9 nM	13 nM	CN1C(=O)C(NC(=O)Nc2cccc(C3=C(O)CSC3=O)c2)N=C(C2CCCCC2)c2ccccc21 (racemic) [Example 1, N-[3(R,S)-5-Cyclohexyl-2,3,dihydro-1-methyl-2-oxo-1H-1,4-benzodiazepin-3-yl]N', [3-(2,5,dihydro-4-hydroxy-2-oxothien,3-yl)phenyl]urea]	–
2.9 nM	7.5 nM	CN1C(=O)C(NC(=O)Nc2cccc(C3=C(O)CNC3=O)c2)N=C(C2CCCCC2)c2ccccc21 (racemic) [Example 2, N-[3(R,S)-5-Cyclohexyl-2,3-dihydro-1-methyl-2-oxo-1H-1,4-benzodiazepin-3-yl]N'-[3-(2,5-dihydro-4-hydroxy-2-oxopyrrol-3-yl)phenyl]urea]	–
6.3 nM	56 nM	CN1CC(O)=C(c2cccc(NC(=O)NC3N=C(C4CCCCC4)c4ccccc4N(C)C3=O)c2)C1=O (racemic) [Example 4, N-[3(R,S)-5-Cyclohexyl-2,3-dihydro-1-methyl-2-oxo-1H-1,4-benzodiazepin-3-yl]N'-[3-(2,5-dihydro-4-hydroxy-N-methyl-2-oxopyrrol-3-yl)phenyl]urea]	–
2.5 nM	280 nM	CN1CC(O)=C(c2cccc(NC(=O)N[C@@H]3N=C(C4CCCCC4)c4ccccc4N(C)C3=O)c2)C1=O [Example 5, N-[3(R)-5-Cyclohexyl-2,3-dihydro-1-methyl-2-oxo-1H-1,4-benzodiazepin-3-yl]N'-[3-(2,5-dihydro-4-hydroxy-N-methyl-2-oxopyrrol-3-yl)phenyl] urea]	–
0.67 nM	110 nM	CN1C(=O)[C@H](NC(=O)Nc2cccc(C3=C(O)CNC3=O)c2)N=C(C2CCCCC2)c2ccccc21 [Example 6, N-[3(R)-5-Cyclohexyl-2,3-dihydro-1-methyl-2-oxo-1H-1,4-benzodiazepin-3-yl]N'-[3-(2,5-dihydro-4-hydroxy-2oxopyrrol-3-yl)phenyl]urea]	–

SMILES	IC50 (CCK receptor (brain))	IC50 (CCK receptor (pancreas); [1])	IC50 (CCK receptor (pancreas))
CN1C(=O)[C@H](NC(=O)Nc2cccc(C3=C(O)CNC3=O)c2)N=C(c2ccccc2)c2ccccc21 [Example 3, N-[3(R)-2,3-Dihydro-1-methyl-2-oxo-5-phenyl-1H-1,4-benzodiazepin-3-yl]N'-[3-(2,5-dihydro-4-hydroxy-2-oxopyrrol-3-yl)phenyl]urea]	16 nM	–	> 3000 nM
